Like-named read-outs stand apart in the source and are kept apart here. Square brackets hold non-standard residues; d marks the D form. Peptide text beside a SMILES is read from it.
How the values were obtained:
[1] = test system: C. quillermondiae clinical strains; assay: MIC, clinical yeast strains; format: cell-based, Candida quillermondiae; parameters: unit: μg/ml; conditions: C. quillermondiae clinical yeast strain 1
In short: (§1)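 MIC recorded as the lowest peptide level, within 0.125–128 μg/ml, that left no visible growth after 20–24 h at 37° C. Inoculum was 5.0×10^5 cfu/ml of clinical isolates. Medium was potato dextrose broth for yeasts and Mueller Hinton broth for bacteria, in a broth microdilution format.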

[2] = test system: Candida albicans clinical strains; assay: MIC, clinical yeast strains; format: cell-based; parameters: unit: μg/ml
In short: as §1

[3] = test system: Escherichia coli clinical strains; format: cell-based; conditions: microdilution, Muller Hinton broth-cation adjusted, 0.02% BSA, 0.2% acetic acid
In short: as §1

[4] = test system: Klebsiella pneumoniae clinical strains; format: cell-based; conditions: microdilution, Muller Hinton broth-cation adjusted, 0.02% BSA, 0.2% acetic acid
In short: as §1

[5] = test system: Pseudomonas aeruginosa clinical strains; format: cell-based; conditions: microdilution, Muller Hinton broth-cation adjusted, 0.02% BSA, 0.2% acetic acid
In short: as §1

[6] = test system: Acinetobacter baumannii clinical strains; format: cell-based; parameters: Minimum inhibitory concentration: unit: μg/ml; conditions: microdilution, Muller Hinton broth-cation adjusted, 0.02% BSA, 0.2% acetic acid
In short: as §1

[7] = test system: Enterobacter cloacae clinical strains; format: cell-based; parameters: Minimum inhibitory concentration: unit: μg/ml; conditions: microdilution, Muller Hinton broth-cation adjusted, 0.02% BSA, 0.2% acetic acid
In short: as §1

[8] = test system: Streptococcus pneumoniae clinical strains; format: cell-based; parameters: Minimum inhibitory concentration: unit: μg/ml; conditions: microdilution, Muller Hinton broth-cation adjusted, 0.02% BSA, 0.2% acetic acid
In short: as §1

[9] = test system: Staphylococcus aureus clinical strains; format: cell-based; parameters: Minimum inhibitory concentration: unit: μg/ml; conditions: microdilution, Muller Hinton broth-cation adjusted, 0.02% BSA, 0.2% acetic acid
In short: as §1

[10] = test system: Proteus mirabilis clinical strains; format: cell-based; parameters: Minimum inhibitory concentration: unit: μg/ml; conditions: microdilution, Muller Hinton broth-cation adjusted, 0.02% BSA, 0.2% acetic acid
In short: as §1

[11] = test system: Serratia marcescens clinical strains; format: cell-based; parameters: Minimum inhibitory concentration: unit: μg/ml; conditions: microdilution, Muller Hinton broth-cation adjusted, 0.02% BSA, 0.2% acetic acid
In short: as §1

[12] = test system: C. glabrata clinical strains; assay: MIC, clinical yeast strains; format: cell-based, Candida glabrata; parameters: unit: µg/ml
In short: as §1

[13] = test system: C. parapsilosis clinical strains; assay: MIC, clinical yeast strains; format: cell-based, Candida parapsilosis; parameters: unit: µg/ml
In short: as §1

[14] = Candida albicans clinical yeast strain 1
[15] = Candida albicans clinical yeast strain 2
[16] = Candida albicans clinical yeast strain 3
[17] = Candida albicans clinical yeast strain 4
[18] = Candida albicans clinical yeast strain 5
[19] = Escherichia coli clinical strain 1
[20] = Escherichia coli clinical strain 2
[21] = Escherichia coli clinical strain 3
[22] = Escherichia coli clinical strain 4
[23] = Escherichia coli clinical strain 5
[24] = Klebsiella pneumoniae clinical strain 1
[25] = Klebsiella pneumoniae clinical strain 2
[26] = Klebsiella pneumoniae clinical strain 3
[27] = Klebsiella pneumoniae clinical strain 4
[28] = Klebsiella pneumoniae clinical strain 5
[29] = Pseudomonas aeruginosa clinical strain 1
[30] = Pseudomonas aeruginosa clinical strain 2
[31] = Pseudomonas aeruginosa clinical strain 3
[32] = Pseudomonas aeruginosa clinical strain 4
[33] = Pseudomonas aeruginosa clinical strain 5
[34] = Enterobacter cloacae clinical strain 1
[35] = Enterobacter cloacae clinical strain 2
[36] = Enterobacter cloacae clinical strain 3
[37] = Enterobacter cloacae clinical strain 4
[38] = Enterobacter cloacae clinical strain 5
[39] = Streptococcus pneumoniae clinical strain 1
[40] = Streptococcus pneumoniae clinical strain 2
[41] = Streptococcus pneumoniae clinical strain 3
[42] = Streptococcus pneumoniae clinical strain 4
[43] = Streptococcus pneumoniae clinical strain 5
[44] = Staphylococcus aureus clinical strain 1
[45] = Staphylococcus aureus clinical strain 2
[46] = Staphylococcus aureus clinical strain 3
[47] = Staphylococcus aureus clinical strain 4
[48] = Staphylococcus aureus clinical strain 5
[49] = Proteus mirabilis clinical strain 1
[50] = Proteus mirabilis clinical strain 2
[51] = Proteus mirabilis clinical strain 3
[52] = Proteus mirabilis clinical strain 4
[53] = Proteus mirabilis clinical strain 5
[54] = Serratia marcescens clinical strain 1
[55] = Serratia marcescens clinical strain 2
[56] = Serratia marcescens clinical strain 3
[57] = Serratia marcescens clinical strain 4
[58] = Serratia marcescens clinical strain 5
[59] = C. glabrata clinical yeast strain 1
[60] = C. glabrata clinical yeast strain 2
[61] = C. glabrata clinical yeast strain 3
[62] = C. glabrata clinical yeast strain 4
[63] = C. parapsilosis clinical yeast strain 1
[64] = C. parapsilosis clinical yeast strain 2
[65] = C. parapsilosis clinical yeast strain 3
[66] = C. parapsilosis clinical yeast strain 4

SMILES: CC[C@@H](C)[C@@H](NC(=O)[C@@H](CC(C)C)NC(=O)[C@@H](CCCNC(=N)N)NC(=O)[C@H](N)CCCNC(=N)N)C(=O)N[C@H](Cc1c[nH]c2ccccc12)C(=O)N[C@H](CCCNC(=N)N)C(=O)N[C@H](CCCNC(=N)N)C(=O)N[C@H](Cc1ccccc1)C(=O)N[C@H](CCCCN)C(=O)N[C@H](Cc1c[nH]c2ccccc12)C(=O)N[C@H](CC(C)C)C(=O)N[C@H](CCCNC(=N)N)C(=O)O [Chain204D] (H-[dR][dR][dL][dI][dW][dR][dR][dF][dK][dW][dL][dR]-OH)
- Minimum inhibitory concentration [1]: 4
- Minimum inhibitory concentration [2, 14]: 8
- Minimum inhibitory concentration [2, 15]: 8
- Minimum inhibitory concentration [2, 16]: 8
- Minimum inhibitory concentration [2, 17]: 8
- Minimum inhibitory concentration [2, 18]: 8
- Minimum inhibitory concentration [3, 19]: 8
- Minimum inhibitory concentration [3, 20]: 1
- Minimum inhibitory concentration [3, 21]: 1
- Minimum inhibitory concentration [3, 22]: 1
- Minimum inhibitory concentration [3, 23]: 1
- Minimum inhibitory concentration [4, 24]: 8
- Minimum inhibitory concentration [4, 25]: 4
- Minimum inhibitory concentration [4, 26]: 16
- Minimum inhibitory concentration [4, 27]: 4
- Minimum inhibitory concentration [4, 28]: 2
- Minimum inhibitory concentration [5, 29]: 4
- Minimum inhibitory concentration [5, 30]: 16
- Minimum inhibitory concentration [5, 31]: 8
- Minimum inhibitory concentration [5, 32]: 8
- Minimum inhibitory concentration [5, 33]: 4
- Minimum inhibitory concentration ([6]; Acinetobacter baumannii clinical strain 1): 4
- Minimum inhibitory concentration ([6]; Acinetobacter baumannii clinical strain 2): 4
- Minimum inhibitory concentration ([6]; Acinetobacter baumannii clinical strain 3): 4
- Minimum inhibitory concentration ([6]; Acinetobacter baumannii clinical strain 4): 4
- Minimum inhibitory concentration ([6]; Acinetobacter baumannii clinical strain 5): 4
- Minimum inhibitory concentration [7, 34]: 4
- Minimum inhibitory concentration [7, 35]: 8
- Minimum inhibitory concentration [7, 36]: 4
- Minimum inhibitory concentration [7, 37]: 8
- Minimum inhibitory concentration [7, 38]: 2
- Minimum inhibitory concentration [8, 39]: 4
- Minimum inhibitory concentration [8, 40]: 4
- Minimum inhibitory concentration [8, 41]: 4
- Minimum inhibitory concentration [8, 42]: 4
- Minimum inhibitory concentration [8, 43]: 4
- Minimum inhibitory concentration [9, 44]: 1
- Minimum inhibitory concentration [9, 45]: 2
- Minimum inhibitory concentration [9, 46]: 2
- Minimum inhibitory concentration [9, 47]: 1
- Minimum inhibitory concentration [9, 48]: 1
- Minimum inhibitory concentration [10, 49]: >128
- Minimum inhibitory concentration [10, 50]: 32
- Minimum inhibitory concentration [10, 51]: 64
- Minimum inhibitory concentration [10, 52]: >128
- Minimum inhibitory concentration [10, 53]: >128
- Minimum inhibitory concentration [11, 54]: >128
- Minimum inhibitory concentration [11, 55]: >128
- Minimum inhibitory concentration [11, 56]: 128
- Minimum inhibitory concentration [11, 57]: >128
- Minimum inhibitory concentration [11, 58]: >128
- Minimum inhibitory concentration [12, 59]: 4
- Minimum inhibitory concentration [12, 60]: 8
- Minimum inhibitory concentration [12, 61]: 32
- Minimum inhibitory concentration [12, 62]: 32
- Minimum inhibitory concentration [13, 63]: 4
- Minimum inhibitory concentration [13, 64]: 4
- Minimum inhibitory concentration [13, 65]: 8
- Minimum inhibitory concentration [13, 66]: 8

SMILES: CC(C)C[C@@H](NC(=O)[C@H](N)CCCNC(=N)N)C(=O)N[C@H](CCCCN)C(=O)N[C@H](Cc1c[nH]c2ccccc12)C(=O)N[C@H](Cc1ccccc1)C(=O)N[C@H](Cc1c[nH]c2ccccc12)C(=O)N[C@H](CC(C)C)C(=O)N[C@H](Cc1ccccc1)C(=O)N[C@H](CCCNC(=N)N)C(=O)N[C@H](CCCCN)C(=O)N[C@H](CCCNC(=N)N)C(=O)O [Chain307D] (H-[dR][dL][dK][dW][dF][dW][dL][dF][dR][dK][dR]-OH)
- Minimum inhibitory concentration [1]: 4
- Minimum inhibitory concentration [2, 14]: 16
- Minimum inhibitory concentration [2, 15]: 16
- Minimum inhibitory concentration [2, 16]: 16
- Minimum inhibitory concentration [2, 17]: 16
- Minimum inhibitory concentration [2, 18]: 16
- Minimum inhibitory concentration [3, 19]: 4
- Minimum inhibitory concentration [3, 20]: 4
- Minimum inhibitory concentration [3, 21]: 4
- Minimum inhibitory concentration [3, 22]: 2
- Minimum inhibitory concentration [3, 23]: 4
- Minimum inhibitory concentration [4, 24]: 8
- Minimum inhibitory concentration [4, 25]: 8
- Minimum inhibitory concentration [4, 26]: 16
- Minimum inhibitory concentration [4, 27]: 16
- Minimum inhibitory concentration [4, 28]: 4
- Minimum inhibitory concentration [5, 29]: 16
- Minimum inhibitory concentration [5, 30]: 16
- Minimum inhibitory concentration [5, 31]: 16
- Minimum inhibitory concentration [5, 32]: 8
- Minimum inhibitory concentration [5, 33]: 8
- Minimum inhibitory concentration [7, 34]: 4
- Minimum inhibitory concentration [7, 35]: 8
- Minimum inhibitory concentration [7, 36]: 4
- Minimum inhibitory concentration [7, 37]: 4
- Minimum inhibitory concentration [7, 38]: 4
- Minimum inhibitory concentration [8, 39]: 4
- Minimum inhibitory concentration [8, 40]: 4
- Minimum inhibitory concentration [8, 41]: 4
- Minimum inhibitory concentration [8, 42]: 2
- Minimum inhibitory concentration [8, 43]: 2
- Minimum inhibitory concentration [9, 44]: 2
- Minimum inhibitory concentration [9, 45]: 2
- Minimum inhibitory concentration [9, 46]: 2
- Minimum inhibitory concentration [9, 47]: 2
- Minimum inhibitory concentration [9, 48]: 2
- Minimum inhibitory concentration [10, 49]: >128
- Minimum inhibitory concentration [10, 50]: 128
- Minimum inhibitory concentration [10, 51]: 128
- Minimum inhibitory concentration [10, 52]: >128
- Minimum inhibitory concentration [10, 53]: >128
- Minimum inhibitory concentration [11, 54]: >128
- Minimum inhibitory concentration [11, 55]: >128
- Minimum inhibitory concentration [11, 56]: 128
- Minimum inhibitory concentration [11, 57]: >128
- Minimum inhibitory concentration [11, 58]: >128
- Minimum inhibitory concentration [12, 59]: 8
- Minimum inhibitory concentration [12, 60]: 16
- Minimum inhibitory concentration [12, 61]: 8
- Minimum inhibitory concentration [12, 62]: 16
- Minimum inhibitory concentration [13, 63]: 16
- Minimum inhibitory concentration [13, 64]: 8
- Minimum inhibitory concentration [13, 65]: 8
- Minimum inhibitory concentration [13, 66]: 8
